A short description of the data set: Waters ACQUITY UPLC BEH C18, 100 × 2.1 mm, 1.7 µm, 40 °C, 0.3 to 0.4 mL/min, estimated dead time 0.63 min; A: water + 0.1% formic acid; B: methanol + 0.1% formic acid; gradient (min/%B) 0/0.5 0.1/0.5 10/80 10.1/99.5 12/99.5. The note with it: stereoisomer not certain.
On to `COc1ccc2cc1Oc1ccc(cc1)CC1=NCCc3cc(OC)c(cc31)Oc1c(OC)c(OC)c(O)c3c1C(C2)N(C)CC3` (stereo unspecified), for which the LC retention time is 3.96 min.

Consider `COC1OC2c3cc4c(cc3CCN(C)C2c2ccc3c(c21)OCO3)OCO4` (stereo unspecified), for which the LC retention time was 4.65 min.

`CC1=C(O)C(=O)CC(OC2CC(C)(C)CC3C4=CCC5C6(C)CCC(OC7OC(C(=O)O)C(O)C(O)C7OC7OCC(O)C(O)C7OC7OC(C)C(O)C(O)C7O)C(C)(CO)C6CCC5(C)C4(C)CCC23C)O1` (stereo unspecified): the LC retention time is 7.79 min.

`N#CC(OC1OC(COC2OC(CO)C(O)C(O)C2O)C(O)C(O)C1O)c1ccccc1` (stereo unspecified): the LC retention time was 3.32 min.

For the molecule `O=c1oc2cc(O)ccc2c2oc3cc(O)ccc3c12`, the LC retention time was 5.97 min.

`CC1OC(Oc2cc3c(O)cc(O)cc3[o+]c2-c2ccc(O)c(O)c2)C(O)C(O)C1O` (stereo unspecified): the LC retention time was 3.18 min.

As to `CC(C)=CCCC(C)(OC1OC(CO)C(O)C(O)C1O)C1CCC2(C)C1C(O)CC1C3(C)CCC(O)C(C)(C)C3CCC12C` (stereo unspecified), the LC retention time is 9.51 min.

For the molecule `CC(O)(CC(=O)O)CC(=O)OCC1OC(Oc2c(-c3ccc(O)cc3)oc3cc(OC4OC(CO)C(O)C(O)C4O)cc(O)c3c2=O)C(O)C(O)C1O` (stereo unspecified), the LC retention time was 3.34 min.

For the molecule `CC(C)CC1NC(=O)C2CCCN2C1=O` (stereo unspecified), the LC retention time is 4.03 min.

Turning to `CCCCCC(O)C(O)CC=CCCCCCCCC(=O)O` (stereo unspecified), the LC retention time was 8.39 min.

For `CC(=O)NC(CC(C)C)C(=O)O` (stereo unspecified), the LC retention time was 3.81 min.

Consider `COc1cc(C2OCC3C(c4cc(OC)c(OC5OC(CO)C(O)C(O)C5O)c(OC)c4)OCC23)cc(OC)c1OC1OC(CO)C(O)C(O)C1O` (stereo unspecified), for which the LC retention time is 3.61 min.

In the case of `Cc1c(N)c(=O)n(-c2ccccc2)n1C`, the LC retention time is 2.76 min.

As for `COc1cc2c(cc1OC)-c1c(C)c3ccc(OC)c(OC)c3c[n+]1CC2`, the LC retention time is 5.19 min.

For the molecule `CC1(C)CCC2(C(=O)OC3OC(CO)C(O)C(O)C3O)CCC3(C)C(=CCC4C5(C)CCC(OC6OC(C(=O)O)C(O)C(O)C6OC6OC(CO)C(O)C(O)C6O)C(C)(C)C5CCC43C)C2C1` (stereo unspecified), the LC retention time is 6.18 min.

In the case of `O=C1OCC(Cc2cccc(O)c2)C1Cc1cccc(O)c1` (stereo unspecified), the LC retention time is 6.18 min.

Take `CC(C)CC(N)C(=O)NCC(=O)O` (stereo unspecified): the LC retention time is 2.08 min.

On to `NCCCCNC(=O)C=Cc1ccc(O)c(O)c1`, for which the LC retention time is 2.22 min.

As for `CC(C)=CCC=C(C)C1CCC2(C)C1C(O)CC1C3(C)CCC(OC4OC(CO)C(O)C(O)C4OC4OC(CO)C(O)C(O)C4O)C(C)(C)C3CCC12C` (stereo unspecified), the LC retention time is 9.63 min.

Take `COc1ccc(-c2coc3cc(OC4OC(COC(=O)CC(=O)O)C(O)C(O)C4O)c(OC)cc3c2=O)cc1` (stereo unspecified): the LC retention time was 5.38 min.

`CC1CNC2(OC3CC4C5CCC6CC(OC7OC(CO)C(OC8OC(CO)C(O)C(O)C8OC8OC(CO)C(O)C(O)C8O)C(O)C7O)CCC6(C)C5CCC4(C)C3C2C)C(O)C1` (stereo unspecified): the LC retention time is 4.24 min.

For `CC1(C)CC(O)C2(C)CCC3(C)C(=CCC4C5(C)CCC(OC6OC(C(=O)O)C(O)C(O)C6OC6OCC(O)C(O)C6O)C(C)(CO)C5CCC43C)C2C1` (stereo unspecified), the LC retention time is 7.44 min.

`O=C(O)c1cc(O)c2c(c1)C(C1c3cc(C(=O)O)cc(O)c3C(=O)c3c(OC4OC(CO)C(O)C(O)C4O)cccc31)c1cccc(OC3OC(CO)C(O)C(O)C3O)c1C2=O` (stereo unspecified): the LC retention time was 3.82 min.

As to `CCCCC(=O)OC1C(CO)OC(OC2(CO)OC(CO)C(OC(C)=O)C2O)C(OC(=O)CCC)C1OC(=O)CCCC` (stereo unspecified), the LC retention time is 8.04 min.

With `COc1cc(C=CC(=O)OCC2OC(OC3C(c4c(O)cc5oc(-c6ccc(O)c(O)c6)cc(=O)c5c4O)OC(CO)C(O)C3O)C(O)C(O)C2O)ccc1O` (stereo unspecified), the LC retention time was 3.87 min.

As to `COc1cc(C=CC(=O)OC2C(OC3C(Oc4c(-c5ccc(O)cc5)oc5cc(OC6OC(CO)C(OC7OC(CO)C(O)C(O)C7O)C(O)C6O)cc(O)c5c4=O)OC(CO)C(O)C3O)OC(CO)C(O)C2O)ccc1O` (stereo unspecified), the LC retention time is 4.01 min.

Consider `O=S(=O)(O)ON=C(Cc1ccccc1)SC1OC(CO)C(O)C(O)C1O` (stereo unspecified), for which the LC retention time is 2.83 min.

For `C=CC1C2=CCOC(=O)C2=COC1OC1OC(CO)C(O)C(O)C1O` (stereo unspecified), the LC retention time was 3.44 min.

With `O=C(O)C1OC(Oc2ccc(-c3oc4cc(O)c(C5OC(CO)C(O)C(O)C5O)c(O)c4c(=O)c3C3OC(CO)C(O)C(O)C3O)cc2)C(O)C(O)C1O` (stereo unspecified), the LC retention time was 4.68 min.

As to `CCC(C)=CCCC(C)(OC1OC(COC2OCC(O)C(O)C2O)C(O)C(O)C1O)C1CCC2(C)C3CCC4C(C)(C)C(OC5OC(CO)C(O)C(O)C5OC5OC(CO)C(O)C(O)C5O)CCC4(C)C3CC(O)C12` (stereo unspecified), the LC retention time was 6.19 min.

As for `COc1cc(-c2cc(=O)c3c(O)cc(OC4OC(C(=O)O)C(O)C(O)C4O)cc3o2)cc(OC)c1OC1OC(CO)C(O)C(O)C1O` (stereo unspecified), the LC retention time was 4.05 min.

Consider `CN1c2ccccc2C(=O)N2CCc3c([nH]c4ccccc34)C21` (stereo unspecified), for which the LC retention time was 7.77 min.

As to `CCC12CCCN3CCc4c(n(c5ccccc45)C(O)(C(=O)OC)C1)C32` (stereo unspecified), the LC retention time was 4.5 min.

Regarding `C=CC1C(OC2OC(CO)C(O)C(O)C2O)OC=C2C(=O)N3CCC(=O)c4ccccc4NC(=O)C3CC21` (stereo unspecified), the LC retention time was 3.77 min.

Turning to `OCC1OC(Oc2cc3c(O)cc(O)cc3[o+]c2-c2cc(O)c(O)c(O)c2)C(OC2OCC(O)C(O)C2O)C(O)C1O` (stereo unspecified), the LC retention time was 2.65 min.

Consider `NC(N)=NCCCCNC(=O)C=Cc1ccc(O)cc1`, for which the LC retention time was 3.07 min.

Take `O=c1cc(-c2ccc(O)c(O)c2)oc2c(C3OCC(O)C(O)C3O)c(O)c(C3OC(CO)C(O)C(O)C3O)c(O)c12` (stereo unspecified): the LC retention time is 3.35 min.

As to `COc1cc(-c2oc3cc(O)cc(O)c3c(=O)c2OC2OC(CO)C(O)C(O)C2OC2OC(C)C(O)C(O)C2O)ccc1O` (stereo unspecified), the LC retention time was 3.72 min.

Regarding `CC(C)=CCC=C(C)C1CCC2(C)C1C(O)CC1C3(C)CCC(OC4OC(CO)C(O)C(O)C4O)C(C)(C)C3CCC12C` (stereo unspecified), the LC retention time was 7.63 min.

On to `O=c1cc(-c2ccc(O)cc2)oc2cc(O)c(C3OCC(O)C(O)C3OC3OC(CO)C(O)C(O)C3O)c(O)c12` (stereo unspecified), for which the LC retention time is 4.21 min.

For the molecule `O=C(CCc1ccc(O)cc1)c1c(O)cc(O)cc1OC1OC(CO)C(O)C(O)C1O` (stereo unspecified), the LC retention time is 4.73 min.

Regarding `CC(C)=CCCC(C)(O)C1CCC2(C)C1C(O)CC1C3(C)CCC(OC4OC(CO)C(O)C(O)C4OC4OC(CO)C(O)C(O)C4O)C(C)(C)C3CCC12C` (stereo unspecified), the LC retention time is 8.2 min.

`O=C(O)CC1CCC(=O)C1CC=CCCO` (stereo unspecified): the LC retention time was 3.39 min.

For `O=c1cc(-c2ccc(O)cc2)oc2cc(O)c(C3OC(CO)C(O)C(O)C3O)c(O)c12` (stereo unspecified), the LC retention time is 3.95 min.

As to `COc1cc2c3cc1Oc1cc(ccc1O)CC1c4c(cc(OC)c(O)c4Oc4ccc(cc4)CC3N(C)CC2)CC[N+]1(C)C` (stereo unspecified), the LC retention time is 3.41 min.

In the case of `CC(C)=CCc1cc(C(O)=CC(=O)c2cc(CC=C(C)C)c(O)cc2O)ccc1O`, the LC retention time is 9.52 min.

For the molecule `O=c1[nH]c(=O)c2[nH]cnc2[nH]1`, the LC retention time was 1.75 min.

For the molecule `O=C(O)CC(=O)OCC1OC(Oc2cc(O)c3c(=O)cc(-c4ccc(O)cc4)oc3c2)C(O)C(O)C1O` (stereo unspecified), the LC retention time was 5.16 min.

For the molecule `O=C(O)c1cc(O)c(O)c(O)c1`, the LC retention time is 2.04 min.

Consider `COc1cc(C=CC(=O)OC(CC(=O)O)C(=O)O)cc(OC)c1O` (stereo unspecified), for which the LC retention time is 4.23 min.

With `Nc1[nH]c(=O)[nH]c(=O)c1OC1OC(CO)C(OC2OC(CO)C(O)C(O)C2O)C(O)C1O` (stereo unspecified), the LC retention time was 2 min.

`CC(C)C(NC(=O)Cc1c[nH]c2ccccc12)C(=O)O` (stereo unspecified): the LC retention time is 5.61 min.

In the case of `COc1ccc(-c2coc3cc(OC4OC(COC(=O)CC5CCNCC5)C(O)C(O)C4O)c(OC)cc3c2=O)cc1` (stereo unspecified), the LC retention time was 4.67 min.

Take `C1CCN2CC3CC(CN4CCCCC34)C2C1` (stereo unspecified): the LC retention time is 2.33 min.

Take `COc1ccc(C2CC(=O)c3c(O)cc(OC4OC(CO)C(O)C(O)C4OC4OC(C)C(O)C(O)C4O)cc3O2)cc1O` (stereo unspecified): the LC retention time is 4.59 min.

Consider `COc1cc(-c2cc(=O)c3c(O)cc(OC4OC(C(=O)O)C(O)C(O)C4OC4OC(COC(=O)C=Cc5ccc(O)cc5)C(O)C(O)C4O)cc3o2)cc(OC)c1O` (stereo unspecified), for which the LC retention time was 4.9 min.

For the molecule `C=C1C2CC3(C1O)C1CC4C5(C)CCC(O)C4(C1N(CC)C5)C3CC2O` (stereo unspecified), the LC retention time was 3.05 min.

As to `CC(CCC1(O)OC2CC3C4CCC5CC(OC6OC(CO)C(OC7OC(CO)C(O)C(O)C7OC7OC(CO)C(O)C(O)C7O)C(O)C6O)CCC5(C)C4CCC3(C)C2C1C)COC1OC(CO)C(O)C(O)C1O` (stereo unspecified), the LC retention time is 4.91 min.

For `C=C(CCC=C(C)C)C1CCC2(C)C1C(O)CC1C3(C)CCC(O)C(C)(C)C3C(OC3OC(CO)C(O)C(O)C3OC3OC(C)C(O)C(O)C3O)CC12C` (stereo unspecified), the LC retention time is 7.57 min.

Regarding `C1CCC(C23CC(CC4CCCNC42)C2CCCCN2C3)NC1` (stereo unspecified), the LC retention time was 2.24 min.

`CCC(C)C(NCC1(O)OCC(O)C(O)C1O)C(=O)NC(CCC(=O)O)C(=O)O` (stereo unspecified): the LC retention time was 2.07 min.

For `CCC12C=CCN3CCc4c(n(c5ccccc45)C(O)(C(=O)OC)C1)C32` (stereo unspecified), the LC retention time is 4.26 min.

As to `CC(CSCC(NC(=O)CCC(N)C(=O)O)C(=O)NCC(=O)O)C(=O)O` (stereo unspecified), the LC retention time was 2.36 min.

`COc1cccc2c(=O)c3ccoc3n(C)c12`: the LC retention time was 5.59 min.

With `COc1ccc(C2CC(=O)c3c(O)cc(OC4OC(CO)C(O)C(O)C4OC4OC(C)C(O)C(O)C4O)cc3O2)cc1` (stereo unspecified), the LC retention time is 5.42 min.

In the case of `COc1ccc(-c2oc3c(CC=C(C)C)c(OC4OC(CO)C(O)C(O)C4O)cc(O)c3c(=O)c2OC2OC(C)C(O)C(O)C2O)cc1` (stereo unspecified), the LC retention time is 5.43 min.

The values are drawn from the RepoRT retention time repository.
